The source of these data is patent US20240002441A1, “PEPTIDES AND USES THEREOF IN MODULATION OF AMYLOID-BETA PROTEIN DEGRADING PROTEASES” (priority 2020, published 2024).

The subject of data set [1] is Ang II-induced expression of IL-6 and Collagen III in EA.hy926 cells. Nature of the data set: Ang II-induced expression of IL-6 and Collagen III in EA.hy926 cells, western blotting (Example 9). The data set is classed as cell-based. Here is the method:
EA.hy926 cells (passage 40) were seeded at a density of 1×10^6 cells/mL. After 24 hours, cells were incubated overnight in reduced serum media. Cells were then treated over 24 h as follows: • 1. Vehicle control • 2. Ang II (10 nM) • 3. […] Ang II (10 nM)+rhACE2 (0.05 ng/μL) • 5.
Following incubation, cells were lysed using lysis buffer (Thermo Fisher Scientific, Cat #89900) containing 1% protease inhibitor (Thermo Fisher Scientific, Cat #1861278). Cell lysate was centrifuged at 13,000 rpm for 10 min. Protein concentration in the supernatant was determined by NanoDrop (Thermo Fisher Scientific, Cat #ND-1000). Supernatants were stored at −30° C. until analysed.
Samples were diluted in SDS-PAGE reducing sample buffer (Bio-Rad Laboratories, Cat #1610747; California, USA) containing 1% β-mercaptoethanol (Bio-Rad Laboratories, Cat #221610710) to reach a final concentration of […]. Prior to loading, samples were heated at 95° C. for 5 min. Samples were loaded into the wells alongside the molecular weight marker (Life Technologies, Cat #LC5800; California, USA). Electrophoresis was conducted at 200 V for 40 min in 1× running buffer. Following protein separation by SDS-PAGE, proteins were blotted onto nitrocellulose membranes at 100 V for 1 h in 1× transfer buffer. The membranes were then blocked in 5% skim milk in 1× Tris-buffered saline (TBST) containing 0.05% Tween 20 (Thermo Fisher Scientific, Cat #28352) for 1 h at room temperature. The membranes were incubated with IL-6 (1:500; Thermo Fisher Scientific, Cat #700480) or collagen III (1:500; Invitrogen, Cat #PA5-27828) primary antibodies while rocking at 4° C. overnight. Membranes were then probed with secondary antibody conjugated with horseradish peroxidase (HRP) (1:6000) for 1 h at room temperature. The HRP-labelled proteins were detected using chemiluminescence SuperSignal™ ECL Western Blotting Substrate (Thermo Fisher Scientific, Cat #34577) at 1:1 ratio. Beta-actin was used as a loading control. Protein bands were analysed using ImageJ (version 1.51) and band density was normalised with the respective beta-actin.
(Immunoblotting shows a protein as a band on a membrane.)

The target of data set [2] is T1, NEP (Homo sapiens, UniProt P08473).
T1 construct: purchased R & D systems 1182-ZNC-010
T1 sequence (P08473 whole entry): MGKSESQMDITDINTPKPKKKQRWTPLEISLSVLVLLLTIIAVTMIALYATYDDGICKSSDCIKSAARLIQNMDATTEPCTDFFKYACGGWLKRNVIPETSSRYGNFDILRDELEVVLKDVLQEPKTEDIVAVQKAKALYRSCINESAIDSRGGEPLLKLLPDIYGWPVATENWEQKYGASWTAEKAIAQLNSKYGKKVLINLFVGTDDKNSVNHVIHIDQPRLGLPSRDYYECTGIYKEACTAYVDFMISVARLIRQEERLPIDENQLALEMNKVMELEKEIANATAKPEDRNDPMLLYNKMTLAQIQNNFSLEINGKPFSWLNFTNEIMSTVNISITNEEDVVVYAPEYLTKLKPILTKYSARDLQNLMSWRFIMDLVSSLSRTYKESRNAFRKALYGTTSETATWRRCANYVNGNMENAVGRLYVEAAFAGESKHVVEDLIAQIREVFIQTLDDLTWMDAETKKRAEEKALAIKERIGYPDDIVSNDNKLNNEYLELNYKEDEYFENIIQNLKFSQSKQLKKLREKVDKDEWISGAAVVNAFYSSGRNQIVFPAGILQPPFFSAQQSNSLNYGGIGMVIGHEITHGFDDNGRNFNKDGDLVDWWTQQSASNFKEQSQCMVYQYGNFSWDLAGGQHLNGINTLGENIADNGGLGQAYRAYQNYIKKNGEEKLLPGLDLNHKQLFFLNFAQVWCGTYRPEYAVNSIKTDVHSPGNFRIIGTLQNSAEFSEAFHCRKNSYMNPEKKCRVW
The data set is described as follows: QFS plate reader enzyme assay, peptide screen on NEP activity (Example 3). The data set is classed as biochemical. The conditions noted are these: peptide 10 ng/μL, NEP 0.05 ng/μL, 1 h at 37° C.; compared to enzyme alone. Here is the method:
(§1) Plate reader-based enzyme assays were performed using a quenched fluorescent substrate (QFS) in a 96-well format using a SpectraMAX M4 Microplate reader (Molecular Devices). The increase in fluorescence following addition of QFS (40 μM) was taken as evidence of enzyme activity. Fluorescence was monitored over 2 h at 37° C. using κEx=320 nm and λEm=405 nm. Assays were conducted in black 96-well plates. Specific enzyme activity was expressed as a rate of substrate cleavage calculated using a standard curve of 7-methoxy-coumarin-4-acetic acid.
(§2) In all plate reader-based enzyme assays using QFS, the reaction rate (μmol of substrate cleaved/min) was calculated using linear regression analysis (GraphPad Prism software version 8.01). The reaction rates calculated were used to generate the enzyme kinetic parameters Vmax and Km through non-linear regression analysis (GraphPad Prism software, version 8.01; Michaelis-Menten equation). Where indicated, enzyme activity in the presence of peptide was expressed as a % of the enzyme alone. Data were expressed as mean±SEM and statistical significance was determined using t-tests or one-way ANOVAs followed by Tukey's post-hoc test. P<0.05 was considered as statistically significant. In all assays conducted using 96-well plates, the reaction mixtures in each well were considered an independent experiment.
(§3) SEQ ID NOS: 1, 5 and 9-15 were screened for their effects on NEP and ECE1 using a high-throughput QFS assay using the method in Example 2 and the following procedure. NEP or ECE1 (0.05 ng/μL) was incubated with each peptide (10 ng/μL) for 1 h at 37° C.

Another data set concerns the target T2, ECE1 (Homo sapiens, UniProt P42892).
T2 construct: purchased R & D systems 1784-ZN-010
T2 sequence (P42892 1-770): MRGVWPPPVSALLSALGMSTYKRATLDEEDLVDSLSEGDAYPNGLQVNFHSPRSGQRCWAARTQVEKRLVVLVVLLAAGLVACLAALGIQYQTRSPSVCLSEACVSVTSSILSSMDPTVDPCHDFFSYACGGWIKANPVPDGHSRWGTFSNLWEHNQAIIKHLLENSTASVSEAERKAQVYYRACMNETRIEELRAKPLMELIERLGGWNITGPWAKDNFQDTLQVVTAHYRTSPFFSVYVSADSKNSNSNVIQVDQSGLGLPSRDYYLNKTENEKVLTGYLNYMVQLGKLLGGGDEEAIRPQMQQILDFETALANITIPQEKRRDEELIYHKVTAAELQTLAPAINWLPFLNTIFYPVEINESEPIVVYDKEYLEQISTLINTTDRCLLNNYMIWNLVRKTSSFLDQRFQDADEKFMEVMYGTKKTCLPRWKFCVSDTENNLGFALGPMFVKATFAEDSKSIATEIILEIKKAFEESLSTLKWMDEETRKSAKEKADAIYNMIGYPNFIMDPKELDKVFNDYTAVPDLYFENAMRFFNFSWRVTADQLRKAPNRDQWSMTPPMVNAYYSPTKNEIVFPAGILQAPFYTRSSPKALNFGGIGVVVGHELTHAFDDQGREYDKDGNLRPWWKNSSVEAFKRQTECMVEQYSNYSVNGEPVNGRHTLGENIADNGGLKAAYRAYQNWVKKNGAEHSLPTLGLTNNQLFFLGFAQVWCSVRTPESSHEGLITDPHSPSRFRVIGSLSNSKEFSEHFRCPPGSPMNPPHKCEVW
The data set is described as follows: QFS plate reader enzyme assay, peptide screen on ECE1 activity (Example 3). The data set is classed as biochemical. The note with it: peptide 10 ng/μL, ECE1 0.05 ng/μL, 1 h at 37° C.; compared to enzyme alone. Here is the method: as §1, §2, §3

Data set [3] concerns the target T1, NEP. The data set is described as follows: Cleavage of synthetic Aβ40 by NEP, LCMS (Example 7). The data set is classed as biochemical. The conditions noted are these: peptide 9 μM. As to the method:
Synthetic Aβ40 (0.10 μg/μL) was added to a reaction mixture containing NEP (0.05 ng/μL) pre-incubated with SEQ ID NO:2 or scrambled control (9 μM) for 1 h at 37° C. Synthetic Aβ42 (0.05 μg/μL) was added to a reaction mixture containing NEP (0.15 ng/μL) preincubated with either scrambled control or SEQ ID NO:2 (9 μM) for 1 h at 37° C. Samples containing enzyme alone had only NEP buffer (Table 2). The cleavage reaction was allowed to continue in a thermomixer at 37° C. Aliquots of equal volume were taken over 24 h. Aliquots were immediately acidified with 0.1% trifluoroacetic acid (TFA) to terminate enzyme activity and snap frozen in dry ice. Samples were stored at −80° C. until analysed by LCMS.
Samples were analysed by LC-MS/MS using a quadrupole TOF mass spectrometer (MicroTOFq, Bruker Daltonics, Bremen, Germany) coupled online with a 1200 series nano-HPLC (Agilent technologies, Santa Clara, CA, USA). Samples were injected onto a zorbax 300SB reversed phase trap column with 95% solvent A (0.1% formic acid) at a flow rate of 10 μL/minute. The peptides were eluted over a 10-min gradient to 70% solvent B (80% acetonitrile, 0.1% formic acid) and separated on a 15-cm, 75-μmID zorbax 300SB nanocolumn. The eluent was nebulised and ionised using the Bruker nano-ESI source with a capillary voltage of 4500 V, dry gas at 180° C., flow rate of 5 L/minute and nebuliser gas pressure at 300 mbar. The MS acquisition was in selected ion monitoring mode after selected ion extraction of the MS spectra. Prior to analysis, the qTOF mass spectrometer was calibrated using a 1:50 dilution tuning mix (Agilent technologies, Santa Clara, CA, USA). Data from MS run were processed in Skyline version 19.1.0.193 (Uni. Of Washington, WA, USA) to perform ion chromatogram extractions and peak integrations.

For another data set, the system named is EA.hy926 cells. The data set is described as follows: Peptide stability study in EA.hy926 endothelial cells, LCMS (Example 4). It is filed as in vitro ADME. The note with it: peptide 9 μM, Opti-MEM. Here is the method:
(§4) SEQ ID NO:2 was prepared as a C-terminal amidated analogue of SEQ ID NO:1. The stability of SEQ ID NO:1 and SEQ ID NO:2 was assessed in HEK293 and EA.hy926 cells grown in culture and their break down was monitored by LCMS over 60 min using the following procedure.
(§5) HEK293 (passage 24) or Ea.hy926 (passage 37) were seeded into tissue-culture-grade 96-well plates at a density of 20,000 cells/well. After 24 hr, cells were washed with PBS and replaced with Opti-MEM reduced serum media containing SEQ ID NO:1 or SEQ ID NO:2 (9 μM). Aliquots of equal volume were taken at T=0 and 60 min. SEQ ID NO:2 was added to control wells having media (no cells) only. Samples were immediately acidified in 0.1% TFA, snap frozen in dry ice and stored in −80° C. until analysed by LCMS.
(§6) Samples were analyzed by LC-MS/MS on a Shimadzu Nexera uHPLC (Japan) coupled to a Triple Tof 5600 mass spectrometer (ABSCIEX, Canada) equipped with a duo electrospray ion source. One μL of each extract was injected onto a 2.1 mm×100 mm Zorbax C18 1.8 um column (Agilent) at 200 μL/min. […] SEQ ID NO:1 and SEQ ID NO:2 were quantified using the […] doubly charged molecular ion from m/z 510.270 to 510.325. The data was acquired using Analyst TF 1.6 and quantification was carried out using MultiQuant 2.1.1 software (ABSCIEX, Canada).

In a further data set the test system is HEK293 cells. The data set is described as follows: Peptide stability study in HEK293 cells, LCMS (Example 4). It is filed as in vitro ADME. The conditions noted are these: peptide 9 μM, Opti-MEM, 60 min. Here is the method: as §4, §5, §6
[4] abbreviates: Ang II 10 nM + peptide 26 μM + rhACE2 0.05 ng/μL + MLN-4760 10 μM.

“rhACE2: Recombinant human ACE2 (Cat #933-ZN-010) purchased from R & D systems”: the “Collagen III expression compared to cells treated with Ang II alone” value in data set [1] (Ang II 10 nM plus 2A 26 μM and/or ACE2 0.05 ng/μL, 24 h) is listed as “significantly lower”. Moreover, the “IL-6 expression compared to cells treated with Ang II alone” value in data set [1] (Ang II 10 nM plus peptide 26 μM and/or rhACE2 0.05 ng/μL, 24 h) is “significantly lower”.
In the case of H-SLFELGKMILQETG-OH [SEQ ID NO:12], in the data set with NEP [2], the NEP activity result is recorded as “significantly stimulate”. In addition, in the data set with ECE1, the ECE1 activity entry is on record as “significantly stimulate”.
In the case of H-SLFELGKMILQETGKN-OH [SEQ ID NO:11], the NEP activity result in the data set with NEP [2] is on record as “significantly stimulate”. The ECE1 activity entry with ECE1 is “significantly stimulate”.
`CC(C)C[C@H](N[C@@H](Cc1cncn1Cc1cc(Cl)cc(Cl)c1)C(=O)O)C(=O)O` [MLN-4760, reference compound]: in data set [1] (setting [4]), the “Collagen III expression in the presence of ACE2 inhibitor MLN-4760” value came out at 75±14% and the “IL-6 expression in the presence of MLN-4760” value is on record as “no difference”.
In the case of H-SLFELGKMILQE-OH [SEQ ID NO:5], the NEP activity result with NEP [2] is on record as “significant increase”. In addition, the ECE1 activity entry with ECE1 is on record as “no effect”.
As to “H-KILGILFMSE-OH [scrambled control, reference compound]”, at NEP [3] (Aβ40 cleavage), the “decrease in Aβ1-21 and increase in Aβ1-12” value was “not observed”. Also, the “peak area corresponding to Aβ1-12 after 24 h” value on NEP [3] (Aβ40 cleavage, 24 h) is reported as 9.7×10^6±2.1×10^6 arbitrary units. In addition, the “amount of Aβ40 remaining after 4 h (peak area)” value at NEP [3] (NEP 0.05 ng/μL, Aβ40 0.10 μg/μL, 4 h) was 6.4×10^6±1.7×10^6 arbitrary units.
For the compound “H-SLFELGKMIL-OH [SEQ ID NO:1, H2N-SLFELGKMIL-OH]”, in the data set with EA.hy926 cells, the “relative amount remaining in the medium of endothelial cells at 60 min” value is 23%±2.4%. Also, the NEP activity result at NEP [2] is listed as “significant increase”. Further, the ECE1 activity entry on ECE1 is “no effect”. The “amount remaining in the medium of HEK293 cells” value in the data set with HEK293 cells was 29%±3%.
With “Ang II: Angiotensin II, potent vasoconstrictor with fibrotic and inflammatory effects; stimulus in EA.hy926 cells (DRVYIHPF; Angiotensin-2; UniProt P01019 25-32, looked up) [reference compound]”, the “Collagen III expression” value in data set [1] (EA.hy926 cells, 24 h, Ang II 10 nM alone, or Ang II and 2A (26 μM)) came to 141±30%. In data set [1] (EA.hy926 cells, Ang II 10 nM, 24 h, band density normalised with beta-actin), this compound gave an IL-6 expression of 152±8%.
